Active and inactive are the calls of the source.
Experiments:
Format in all cases: functional, organism-based
Conditions in all cases: time 16-20 hrs
Niallia circulans = experiment: Antibacterial activity against Bacillus circulans NRRL B-380 assessed as reduction in bacterial growth measured after 16 to 20 hrs by agar disk diffusion method
Escherichia coli = experiment: Antibacterial activity against Escherichia coli ATCC 35218 assessed as reduction in bacterial growth measured after 16 to 20 hrs by agar disk diffusion method
Klebsiella pneumoniae = experiment: Antibacterial activity against Klebsiella pneumoniae DSM 26371 assessed as reduction in bacterial growth measured after 16 to 20 hrs by agar disk diffusion method
Staphylococcus delphini = experiment: Antibacterial activity against Staphylococcus delphini DSM 20771 assessed as reduction in bacterial growth measured after 16 to 20 hrs by agar disk diffusion method
Staphylococcus aureus = experiment: Antibacterial activity against Staphylococcus aureus ATCC29213 assessed as reduction in bacterial growth measured after 16 to 20 hrs by agar disk diffusion method
Enterococcus faecalis = experiment: Antibacterial activity against Enterococcus faecalis DSM 2570 assessed as reduction in bacterial growth measured after 16 to 20 hrs by agar disk diffusion method
Pseudomonas aeruginosa = experiment: Antibacterial activity against Pseudomonas aeruginosa ATCC 27853 assessed as reduction in bacterial growth measured after 16 to 20 hrs by agar disk diffusion method
Bacillus subtilis = experiment: Antibacterial activity against Bacillus subtilis NCLB3610 assessed as reduction in bacterial growth measured after 16 to 20 hrs by agar disk diffusion method

Measured: Activity

CC(C)C[C@@H]1NC(=O)[C@@H]2C[C@]3(c4nc5c(=O)[nH]c(N)nc5[nH]4)c4ccccc4N[C@@H]3N2C1=O
inactive: all assays above

CC(C)C[C@@H]1NC(=O)[C@H]([C@@H](O)c2c[nH]c3ccccc23)NC1=O
inactive: all assays above

Reference: ChEMBL document CHEMBL6078694, “Divergent Metabolism of Cyclo-l-Trp-l-Leu in Streptomyces albofaciens by Hydroxylation and Nucleobase Transfer with Two Cytochrome P450 Enzymes” (J Nat Prod, 2024)
